Results as given in patent publication US7618990B2, “Oxazolidone derivatives as PR modulators” (Wyeth, priority 2006, dated 2009).

Assays:
[1] = test system: alkaline phosphatase activity in T47D cells; experiment: Effects of progestins and antiprogestins on alkaline phosphatase activity in T47D cells (antagonist mode); type: cell-based; conditions: Homo sapiens, in the presence of 1 nM progesterone, read-out: T47D Alkaline Phosphatase Activity IC50 (nM) or % inhibition; for IC50: 24 h; for inhibition at 3 µM: % inhibition at 3000 nM
Experimental: (1) Effects of Progestins and Antiprogestins on Alkaline Phosphatase Activity in T47D Cells
PURPOSE: To identify progestins or antiprogestins by determining a compound's effect on alkaline phosphatase activity in T47D cells.
Culture Medium: • DMEM:F12 (1:1) (GIBCO, BRL) supplemented with 5% (v/v) charcoal stripped fetal bovine serum (not heat-inactivated), 100 U/mL penicillin, 100 μg/mL streptomycin, and 2 mM the GlutaMax™ reagent (GIBCO, BRL).
Alkaline Phosphatase Assay Buffer: • I. 0.1M Tris-HCl, pH 9.8, containing 0.2% the Triton® X-100 reagent • II. 0.1M Tris-HCl, pH 9.8, containing 4 mM p-nitrophenyl phosphate (Sigma). B. Cell Culture and Treatment:
Frozen T47D cells were thawed in a 37° C. water bath and diluted to 280,000 cells/mL in culture medium. To each well in a 96-well plate (Falcon, Becton Dickinson Labware), 180 μL of diluted cell suspension was added.
Twenty μL of reference or test compounds diluted in the culture medium was then added to each well. When testing for progestin antagonist activity, reference antiprogestins or test compounds were added in the presence of 1 nM progesterone. The cells were incubated at 37° C. in a 5% CO2/humidified atmosphere for 24 h.
NOTE: For high throughput screening, one concentration of each compound was tested at 0.3 μg/mL. Based on an average molecular weight of 300 g/mol for the compounds in the library, the concentration was approximately 1 μM. Subsequently, active compounds were tested in dose response assays to determine EC50 and IC50. C. Alkaline Phosphatase Enzyme Assay:
At the end of treatment, the medium was removed from the plate. Fifty μL of assay buffer I was added to each well. The plates were shaken in a titer plate shaker for 15 min. Then 150 μL of assay buffer II was added to each well. Optical density measurements were taken at 5 min intervals for 30 min at a test wavelength of 405 nm.
For reference and test compounds, a dose response curve was generated for dose (X-axis) vs. the rate of enzyme reaction (slope) (Y-axis). Square root-transformed data was used for analysis of variance and nonlinear dose response curve fitting for both agonist and antagonist modes. Huber weighting was used to down-weight the effects of outliers. EC50 or IC50 values were calculated from the retransformed values. JMP software (SAS Institute, Inc.) was used for both one-way analysis of variance and non-linear dose response analysis in both single dose and dose response studies.
Progesterone and trimegestone were reference progestins and RU486 was the reference antiprogestin. All reference compounds were run in full dose response curves and the EC50 and IC50 values were calculated.

| melting point [°C] | IC50 [1] [nM] | Structure (SMILES) | inhibition at 3 µM [1] [%] |
| --- | --- | --- | --- |
| 157 to 159 | 23.3 | CC[C@H]1COC(=O)N1c1nc(-c2ccc(C#N)cc2)c(F)s1 [Example 12, 4-{2-[(4S)-4-Ethyl-2-oxo-1,3-oxazolidin-3-yl]-5-fluoro-1,3-thiazol-4-yl}benzonitrile] |  |
| 114 to 116 | 70.2 | CCC[C@@H]1COC(=O)N1c1nc(-c2ccc(Br)cc2)cs1 [Example 20, (4R)-3-[4-(4-Bromophenyl)-1,3-thiazol-2-yl]-4-propyl-1,3-oxazolidin-2-one] |  |
| 137 to 139 | 124 | CC[C@H]1COC(=O)N1c1nc(-c2ccc(Br)cc2)c(Cl)s1 [Example 13, (4S)-3-[4-(4-Bromophenyl)-5-chloro-1,3-thiazol-2-yl]-4-ethyl-1,3-oxazolidin-2-one] |  |
| 175 to 176.5 | 437 | Cc1sc(N2C(=O)OCC2(C)C)nc1-c1ccc(Br)cc1 [Example 56, 3-[4-(4-Bromophenyl)-5-methyl-1,3-thiazol-2-yl]-4,4-dimethyl-1,3-oxazolidin-2-one] |  |
| 156 to 157 | 88.8 | CCCC1COC(=O)N1c1nc(-c2ccc(Br)cc2)cs1 (centres unmarked) [Example 29, 3-[4-(4-Bromophenyl)-1,3-thiazol-2-yl]-4-propyl-1,3-oxazolidin-2-one] |  |
| 105 to 107 | 120 | CC[C@H]1COC(=O)N1c1nc(-c2ccc(Br)cc2)c(F)s1 [Example 11, (4S)-3-[4-(4-Bromophenyl)-5-fluoro-1,3-thiazol-2-yl]-4-ethyl-1,3-oxazolidin-2-one] |  |
| 141 to 142 | 407 | CCC1CN(c2nc(-c3ccc(Br)cc3)cs2)C(=O)O1 (centres unmarked) [Example 32, 3-[4-(4-Bromophenyl)-1,3-thiazol-2-yl]-5-ethyl-1,3-oxazolidin-2-one] |  |
| 174 to 176 | 191 | N#Cc1ccc(-c2csc(N3C(=O)OC[C@H]3Cc3ccccc3)n2)cc1 [Example 44, 4-{2-[(4R)-4-Benzyl-2-oxo-1,3-oxazolidin-3-yl]-1,3-thiazol-4-yl}benzonitrile] |  |
| 165 to 167 |  | COC(=O)[C@@H]1COC(=O)N1c1nc(-c2ccc(Br)cc2)cs1 [Example 70, Methyl (4S)-3-[4-(4-bromophenyl)-1,3-thiazol-2-yl]-2-oxo-1,3-oxazolidine-4-carboxylate] | 90 |
| 166 to 167 | 1.8 | CC1OC(=O)N(c2nc(-c3ccc(C#N)cc3)cs2)C1(C)C (centres unmarked) [Example 62, 4-[2-(4,4,5-Trimethyl-2-oxo-1,3-oxazolidin-3-yl)-1,3-thiazol-4-yl]benzonitrile] |  |
| 116 to 118 | 64.3 | CCC[C@H]1COC(=O)N1c1nc(-c2ccc(Br)cc2)cs1 [Example 22, (4S)-3-[4-(4-Bromophenyl)-1,3-thiazol-2-yl]-4-propyl-1,3-oxazolidin-2-one] |  |
| 191 to 193 | 68.8 | CC1CN(c2nc(-c3ccc(Br)cc3)cs2)C(=O)O1 (centres unmarked) [Example 31, 3-[4-(4-Bromophenyl)-1,3-thiazol-2-yl]-5-methyl-1,3-oxazolidin-2-one] |  |
| 201 to 203 | 144 | CC[C@H]1COC(=O)N1c1nc(-c2ccc(C#N)cc2)c(C#N)s1 [Example 15, 4-(4-Cyanophenyl)-2-[(4S)-4-ethyl-2-oxo-1,3-oxazolidin-3-yl]-1,3-thiazole-5-carbonitrile] |  |
| 244 to 245 |  | N#Cc1ccc(-c2csc(-n3c(=O)oc4ccccc43)n2)cc1 [Example 54, 4-[2-(2-Oxo-1,3-benzoxazol-3(2H)-yl)-1,3-thiazol-4-yl]benzonitrile] | 50 |
| 243 to 245 | 166 | N#Cc1ccc(-c2csc(N3C(=O)OC[C@H]3c3ccccc3)n2)cc1 [Example 45, 4-{2-[(4R)-2-Oxo-4-phenyl-1,3-oxazolidin-3-yl]-1,3-thiazol-4-yl}benzonitrile] |  |
| 242 to 244 | 194 | N#Cc1ccc(-c2csc(N3C(=O)OC[C@@H]3c3ccccc3)n2)cc1 [Example 46, 4-{2-[(4S)-2-Oxo-4-phenyl-1,3-oxazolidin-3-yl]-1,3-thiazol-4-yl}benzonitrile] |  |
| 142 to 144 | 30 | CC1(C)COC(=O)N1c1nc(-c2cccc(Br)c2)cs1 [Example 18, 3-[4-(3-Bromophenyl)-1,3-thiazol-2-yl]-4,4-dimethyl-1,3-oxazolidin-2-one] |  |
| 219 to 221 | 21.6 | N#Cc1ccc(-c2csc(N3C(=O)OCC34CC4)n2)cc1 [Example 25, 4-[2-(5-oxo-6-oxa-4-azaspiro[2.4]hept-4-yl)-1,3-thiazol-4-yl]benzonitrile] |  |
| 250 to 251 | 43.5 | CC1(C)COC(=O)N1c1nc(-c2ccc(C#N)s2)cs1 [Example 60, 5-[2-(4,4-dimethyl-2-oxo-1,3-oxazolidin-3-yl)-1,3-thiazol-4-yl]thiophene-2-carbonitrile] |  |
| 197 to 199 | 158 | O=C1OCCN1c1nc(-c2ccc(Br)cc2)cs1 [Example 28, 3-[4-(4-Bromophenyl)-1,3-thiazol-2-yl]-1,3-oxazolidin-2-one] |  |
| 249 to 251.5 | 37.8 | CC1(C)COC(=O)N1c1nc(-c2csc(C#N)c2)cs1 [Example 61, 4-[2-(4,4-Dimethyl-2-oxo-1,3-oxazolidin-3-yl)-1,3-thiazol-4-yl]thiophene-2-carbonitrile] |  |
| 131 to 133 | 22.5 | CCC[C@@H]1COC(=O)N1c1nc(-c2ccc(C#N)cc2)cs1 [Example 21, 4-{2-[(4R)-2-oxo-4-propyl-1,3-oxazolidin-3-yl]-1,3-thiazol-4-yl}benzonitrile] |  |
| 145 to 147 | 0.45 | CCC1(CC)COC(=O)N1c1nc(-c2ccc(C#N)cc2)cs1 [Example 19, 4-[2-(4,4-Diethyl-2-oxo-1,3-oxazolidin-3-yl)-1,3-thiazol-4-yl]benzonitrile] |  |
| 157 to 159 | 294 | CC[C@H]1COC(=O)N1c1nc(-c2ccc(C#N)cc2)c(Cl)s1 [Example 14, 4-{5-Chloro-2-[(4S)-4-ethyl-2-oxo-1,3-oxazolidin-3-yl]-1,3-thiazol-4-yl}benzonitrile] |  |
| 222 to 224 | 41.9 | N#Cc1ccc(-c2nc(N3C(=O)OCC34CC4)sc2F)cc1 [Example 55, 4-[5-Fluoro-2-(5-oxo-6-oxa-4-azaspiro[2.4]hept-4-yl)-1,3-thiazol-4-yl]benzonitrile] |  |
| 192.5 to 193 | 101 | Cc1sc(N2C(=O)OCC2(C)C)nc1-c1ccc(C#N)cc1 [Example 57, 4-[2-(4,4-Dimethyl-2-oxo-1,3-oxazolidin-3-yl)-5-methyl-1,3-thiazol-4-yl]benzonitrile] |  |
| 187 to 189 |  | C[C@@H]1COC(=O)N1c1nc(-c2cccc(C#N)c2)cs1 [Example 17, 3-{2-[(4R)-4-Methyl-2-oxo-1,3-oxazolidin-3-yl]-1,3-thiazol-4-yl}benzonitrile] | 84 |
| 163 to 165 | 95.5 | O=C1OCC(CC(F)(F)F)N1c1nc(-c2ccc(Br)cc2)cs1 (centres unmarked) [Example 67, 3-[4-(4-Bromophenyl)-1,3-thiazol-2-yl]-4-(2,2,2-trifluoroethyl)-1,3-oxazolidin-2-one] |  |
| 189 to 192 | 565 | O=C1OC[C@@H](CO)N1c1nc(-c2ccc(Br)cc2)cs1 [Example 71, (4R)-3-[4-(4-Bromophenyl)-1,3-thiazol-2-yl]-4-(hydroxymethyl)-1,3-oxazolidin-2-one] |  |
| 126 to 128 | 142 | C[C@@H]1COC(=O)N1c1nc(-c2cccc(Br)c2)cs1 [Example 16, (4R)-3-[4-(3-bromophenyl)-1,3-thiazol-2-yl]-4-methyl-1,3-oxazolidin-2-one] |  |

| Structure (SMILES) | melting point [°C] | IC50 [1] [nM] | inhibition at 3 µM [1] [%] |
| --- | --- | --- | --- |
| N#Cc1ccc(-c2csc(N3C(=O)OC[C@H]3CC(F)(F)F)n2)cc1 [Example 69, 4-{2-[(4R)-2-Oxo-4-(2,2,2-trifluoroethyl)-1,3-oxazolidin-3-yl]-1,3-thiazol-4-yl}benzonitrile] | 235 to 238 | 63.8 |  |
